Results taken from PMC7174661, “Patch-Clamp Analysis of the Mitochondrial H^+ Leak in Brown and Beige Fat” (Frontiers in Physiology, 2020).

Target: T1, UCP1 (Mus musculus, UniProt P12242)
T1 construct: native full-length protein in the inner mitochondrial membrane; mitoplasts from brown (or beige) fat; no tags
T1 sequence (P12242 1-307): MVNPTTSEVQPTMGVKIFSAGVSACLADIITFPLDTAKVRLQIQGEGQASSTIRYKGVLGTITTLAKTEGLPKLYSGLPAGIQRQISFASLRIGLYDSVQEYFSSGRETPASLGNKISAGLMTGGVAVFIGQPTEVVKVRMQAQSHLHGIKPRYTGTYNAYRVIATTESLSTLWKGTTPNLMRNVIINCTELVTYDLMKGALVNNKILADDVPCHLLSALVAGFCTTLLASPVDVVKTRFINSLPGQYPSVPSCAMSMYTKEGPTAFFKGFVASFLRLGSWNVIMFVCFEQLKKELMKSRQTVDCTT
Test: whole-mitoplast patch-clamp, inhibition of H+ current
Format: biochemical
Conditions: Mg2+-free ATP, cytosolic side; current activated by 0.2 mM oleic acid / 10 mM MβCD; symmetrical pH 7.0; competitive with fatty acid; figure reproduced from the same laboratory's Fedorenko et al. 2012

## Nc1ncnc2c1ncn2[C@@H]1O[C@H](COP(=O)(O)OP(=O)(O)OP(=O)(O)O)[C@@H](O)[C@H]1O [ATP]
  IC50: 2100 ± 100 nM
